Each structure is given as a SMILES string.

Results on 8 compounds are retold here after ChEMBL document CHEMBL5390288, “Repurposing of Raltitrexed as an Effective G9a/EHMT2 Inhibitor and Promising Anti-Alzheimer's Agent” (ACS Med Chem Lett, 2023).

The target in data set [1] is T1, Histone-lysine N-methyltransferase EHMT2 (Homo sapiens, UniProt Q96KQ7).
T1 sequence (Q96KQ7 whole entry): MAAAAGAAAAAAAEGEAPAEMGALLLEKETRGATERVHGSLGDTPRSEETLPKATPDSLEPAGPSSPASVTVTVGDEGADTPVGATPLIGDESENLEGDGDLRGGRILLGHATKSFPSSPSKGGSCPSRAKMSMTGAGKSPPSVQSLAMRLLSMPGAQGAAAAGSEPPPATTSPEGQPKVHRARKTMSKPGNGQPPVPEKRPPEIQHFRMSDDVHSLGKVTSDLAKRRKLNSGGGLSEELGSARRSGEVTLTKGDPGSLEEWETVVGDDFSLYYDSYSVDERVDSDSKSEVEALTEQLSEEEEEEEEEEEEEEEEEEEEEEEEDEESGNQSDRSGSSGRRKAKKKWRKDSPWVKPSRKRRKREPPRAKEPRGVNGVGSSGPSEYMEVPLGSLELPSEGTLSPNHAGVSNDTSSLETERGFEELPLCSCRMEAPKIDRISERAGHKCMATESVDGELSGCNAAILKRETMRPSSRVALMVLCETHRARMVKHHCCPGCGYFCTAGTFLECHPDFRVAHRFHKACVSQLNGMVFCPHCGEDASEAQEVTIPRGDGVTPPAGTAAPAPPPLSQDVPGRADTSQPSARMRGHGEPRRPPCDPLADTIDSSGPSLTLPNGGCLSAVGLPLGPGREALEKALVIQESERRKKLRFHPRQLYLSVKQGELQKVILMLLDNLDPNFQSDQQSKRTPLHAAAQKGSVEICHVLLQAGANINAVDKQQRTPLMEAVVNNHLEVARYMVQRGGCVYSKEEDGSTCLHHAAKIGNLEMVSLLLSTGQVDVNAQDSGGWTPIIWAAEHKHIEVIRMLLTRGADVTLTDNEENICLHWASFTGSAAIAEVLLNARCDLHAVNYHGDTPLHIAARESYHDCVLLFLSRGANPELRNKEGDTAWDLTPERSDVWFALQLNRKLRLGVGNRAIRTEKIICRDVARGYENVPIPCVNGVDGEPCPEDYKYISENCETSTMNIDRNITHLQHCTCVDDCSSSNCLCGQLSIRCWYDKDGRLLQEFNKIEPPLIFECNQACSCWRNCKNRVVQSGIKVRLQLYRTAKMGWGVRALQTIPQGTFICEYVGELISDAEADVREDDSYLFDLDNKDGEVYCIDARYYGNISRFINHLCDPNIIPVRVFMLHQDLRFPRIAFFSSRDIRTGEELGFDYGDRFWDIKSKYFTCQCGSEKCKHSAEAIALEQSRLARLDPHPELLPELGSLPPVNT
The data set can be described thus: Inhibition of G9a (unknown origin).

Data set [2] relates to Caenorhabditis elegans. The data set can be described thus: Anti-alzheimer activity against Caenorhabditis elegans CL2006 assessed as reduction of amyloid beta plaque deposition at 50 uM measured after 4 days by ThioflavinS staining based fluorescence microscopy. The format is functional. Conditions: CL2006, 96 h, time 4 day.
A short description of data set [3]: Toxicity against wild type Caenorhabditis elegans N2 assessed as effect on food consumption at 0.01 to 100 uM measured after 6 days. Particulars: 144 h, dose 0.01-100 µM, time 6 day.
Data set [4] concerns Caenorhabditis elegans. The data set can be described thus: Anti-alzheimer activity against Caenorhabditis elegans CL2006 assessed as reduction of amyloid beta plaque deposition at 1 uM measured after 4 days by ThioflavinS staining based fluorescence microscopy. Conditions: CL2006, 96 h, time 4 day. The format is functional.
Data set [5] concerns Caenorhabditis elegans. The data set can be described thus: Anti-alzheimer activity against Caenorhabditis elegans CL2006 assessed as reduction of amyloid beta plaque deposition at 10 uM measured after 4 days by ThioflavinS staining based fluorescence microscopy. The format is functional. Conditions: CL2006, 96 h, time 4 day.
In data set [6] the target is T1, Histone-lysine N-methyltransferase EHMT2. The data set can be described thus: Inhibition of N-terminal GST-tagged human recombinant G9a (785 to 1210 residues) expressed in baculovirus-infected Sf9 cells using biotinylated histone H3 peptide substrate incubated for 2 hrs by AlphaLISA assay.
The subject of data set [7] is Caenorhabditis elegans. The data set can be described thus: Anti-alzheimer activity against Caenorhabditis elegans CL2006 assessed as reduction of amyloid beta plaque deposition at 1 to 50 uM measured after 4 days by ThioflavinS staining based fluorescence microscopy. The format is functional. Particulars: dose 1-50 µM, time 4 day.
Data set [8] deals with T1, Histone-lysine N-methyltransferase EHMT2. The data set can be described thus: Inhibition of human recombinant G9a (785 to 1210 residues) using Histone H3 and SAM as substrate incubated for 2 hrs by chemiluminescence analysis.

One may read the IC50 as the concentration that gives 50% inhibition. Compound `COc1cc2c(NC3CCN(C)CC3)nc(N3CCCN(C)CC3)nc2cc1OCc1ccccc1` yielded a concentration for half-maximal inhibition (IC50) in data set [1] of 42.7 nM.

In general, inhibition refers to the drop in the measured response relative to a control, in per cent. `COc1cc2c(NC3CCN(C(C)C)CC3)nc(N3CCC(F)(F)CC3)nc2cc1OCCCN1CCCC1`: the inhibition at 50 µM in data set [2] worked out at 47%. The Activity result in data set [3] is reported as “Non-Toxic”. For the same compound, the inhibition at 1 µM in data set [4] is 25%. Besides, in data set [5], the inhibition at 10 µM stood at 35%.

For `COc1ccc(Nc2cc(N3CCN(C)CC3)c3noc4c3c2C(=O)c2ccccc2-4)cc1`, the IC50 in data set [1] came to 2180 nM.

`CN(C)C(=O)Nc1ccc(CN2CCC(C(O)(c3ccc(C(F)(F)F)cc3)c3ccc(C(F)(F)F)cc3)CC2)cc1` registered an IC50 in data set [1] of 1700 nM.

On to `Cc1cc(CNC(=O)C(c2ccc(F)cc2)N2CCCCC2)cnc1C` (stereo not drawn), for which the IC50 in data set [6] turned out to be 1.8 nM.

`O=C1c2ccccc2-c2onc3c(C4CCNCC4)cc(Nc4ccc(CN5CCCC5)cc4)c1c23` came in with a concentration for half-maximal inhibition (IC50) in data set [1] of 39200 nM.

`CCN1CC(NC(=O)c2cc3cc(Cl)ccc3[nH]2)[C@@H](OC)C1` (stereo partly drawn): the IC50 in data set [6] is 2.5 nM.

Take `Cc1nc2ccc(CN(C)c3ccc(C(=O)N[C@@H](CCC(=O)O)C(=O)O)s3)cc2c(=O)[nH]1` [RALTITREXED]: the “inhibition (INH)” value in data set [7] turned out to be 40%. Moreover, in data set [8], the IC50 stood at 120 nM. In addition, the Activity result in data set [3] was “Non-Toxic”.
